Data: PubChem BioAssay AID2060354 (Molecular Pharmacology Branch, DTP, NCI, 2025)
pIC50: −log10 of the molar value. Where “and” joins values, the source holds several entries; their conditions need not be identical. Equal values may be shown once.

Test system: 519858-162-T-J1-PDC spheroid growth inhibition
Assay: Anticancer human tumor 519858-162-T-J1-PDC patient-derived colon adenocarcinoma cell line growth inhibition [TAK]
Conditions: spheroids with HUVEC and MSC; for viability, T/C: stronger effect = lower value
From the text: Combinatorial screen of targeted agents with TAK-243 and ipatasertib in multi-cell type tumor spheroids
A high-throughput screen of multi-cell type tumor spheroids was designed to identify active combinations of targeted small molecules and TAK-243 or ipatasertib. Complex spheroids include a stromal component modeled by human endothelial cells (HUVEC) and fibroblasts modeled by human mesenchymal stem cells (MSCs). The concentration ranges selected for each drug and investigational agent were based upon clinically achievable concentrations if the clinical Cmax of the agent was known.
Compounds. The drugs and investigational agents: TAK-243 (785004), ipatasertib (767898), everolimus (733504), selumetinib (741078), bortezomib (756655), trametinib (758246), ixazomib (758254), vemurafenib (761431), dabrafenib (764134), sapanisertib (764658), alpelisib (765974), and copanlisib (816437), were obtained from the National Cancer Institute (NCI) Developmental Therapeutics Program Chemical Repository. The FDA-approved anticancer drug set is available from the NCI Developmental Therapeutics Program. […] The stock solutions were prepared in dimethyl sulfoxide (DMSO, Sigma-Aldrich, St. Louis, MO, cat. D2650) at 800-fold the tested concentration and stored at -70 degrees C prior to their use. All drugs and investigational agents were tested over a range starting from a high concentration at or near the clinical Cmax and decreasing in half-log increments. If the clinical Cmax for an agent had not been determined, the highest concentration tested was 10 microM.
NCI60 Cell Culture. NCI60 cell lines were obtained from the NCI Developmental Therapeutics Program Tumor Repository. For each lot of cells, the Repository performed Applied Biosystems AmpFLSTR Identifiler testing with PCR amplification to confirm consistency with the published Identifier STR profile for each cell line. Cells were kept in continuous culture for no more than 20 passages. The optimal seeding densities for each of the cell lines at each time point assessed were determined prior to performing the concentration response studies. Briefly, the NCI60 human tumor lines were grown as monolayers in RPMI 1640 medium supplemented with 10% FBS and 2 mmol/L L-glutamine.
An additional 2 lines were from the NCI60 cell line panel including melanomas, MALME-3M and SK-MEL-2. Pooled donor human umbilical vein endothelial cells (HUVEC, Lonza, cat. CC-2519) and human mesenchymal stem cells (hMSC, Lonza, cat. PT-2501) were purchased from Lonza (Walkersville, MD).
PDMR cell lines were grown in complete medium (DC medium): Dulbecco's modified Eagle's medium (DMEM)/F12 supplemented with 5% fetal bovine serum (FBS), 2 mM L-glutamine, 100 U/mL penicillin and 100 µg/ml streptomycin, 0.4 µg/ml hydrocortisone, 10 ng/ml epidermal growth factor (EGF) recombinant human protein, 24 µg/mL adenine, and 0.1 mg/mL primocin. During culture from frozen stock vials, PDMR cells were cultured in the same medium containing 10 µM Y-27632 (see Table 3). The PDCs were cultured in complete DMEM/F12 media without 10 microM Y-27632 dihydrochloride for at least two passages prior to the screen. The pooled donor HUVEC and hMSC were cultured in endothelial cell growth medium 2 (PromoCell, Heidelberg, Germany, cat. C-22011) and mesenchymal stem cell growth medium 2 (PromoCell, cat. C-28009), respectively. For all experiments, HUVEC and hMSC were used at passages </=5.
For the pre-screen, cell seeding densities were determined from a titration spanning the range from 5,000 to 313 cells per well. The mct-spheroids including 60% malignant cells, 25% HUVEC and 15% MSC dispensed as a mixture into U-bottom Ultra-Low Attachment 384-well plates (Corning, NY)
High-throughput Drug Combination Screening.
Prior to their inoculation into 384-well plates, malignant cells, HUVEC, and hMSC were removed from T flasks using TrypLE express (Thermo Fisher Scientific, cat. 12605036) and harvested by centrifugation for 5 min at 233 x g. […]

[1] = curve of first compound, second compound 0.3 µM
[2] = curve of first compound, second compound 0.949 µM
[3] = curve of first compound, second compound 3 µM
[4] = curve of first compound, second compound 9.49 µM
[5] = curve of first compound, second compound 30 µM
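Note: spheroids exposed to drugs for 7 days.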

## CC(=O)Nc1cccc(-n2c(=O)n(C3CC3)c(=O)c3c(Nc4ccc(I)cc4F)n(C)c(=O)c(C)c32)c1 + CC(C)NCC(C(=O)N1CCN(c2ncnc3c2C(C)CC3O)CC1)c1ccc(Cl)cc1
[1]
  pIC50: 8.25
[2]
  pIC50: 8.28
[3]
  pIC50: 8.23
[4]
  pIC50: 8.20
[5]
  pIC50: 8.04
Second compound 0.3 µM, first compound 94.9 pM
  viability, T/C: 78.5%
Second compound 0.3 µM, first compound 0.0003 µM
  viability, T/C: 87.2%
Second compound 0.3 µM, first compound 0.000949 µM
  viability, T/C: 72%
Second compound 0.3 µM, first compound 0.003 µM
  viability, T/C: 62.6%
Second compound 0.3 µM, first compound 0.00949 µM
  viability, T/C: 40.1%
Second compound 0.3 µM, first compound 0.03 µM
  viability, T/C: 18.1%
Second compound 0.949 µM, first compound 94.9 pM
  viability, T/C: 99.8%
Second compound 0.949 µM, first compound 0.0003 µM
  viability, T/C: 107%
Second compound 0.949 µM, first compound 0.000949 µM
  viability, T/C: 69%
Second compound 0.949 µM, first compound 0.003 µM
  viability, T/C: 66.1%
Second compound 0.949 µM, first compound 0.00949 µM
  viability, T/C: 37.8%
Second compound 0.949 µM, first compound 0.03 µM
  viability, T/C: 18.4%
Second compound 3 µM, first compound 94.9 pM
  viability, T/C: 82.7%
Second compound 3 µM, first compound 0.0003 µM
  viability, T/C: 97.7%
Second compound 3 µM, first compound 0.000949 µM
  viability, T/C: 86.2%
Second compound 3 µM, first compound 0.003 µM
  viability, T/C: 65.6%
Second compound 3 µM, first compound 0.00949 µM
  viability, T/C: 39.5%
Second compound 3 µM, first compound 0.03 µM
  viability, T/C: 26.5%
Second compound 9.49 µM, first compound 94.9 pM
  viability, T/C: 70.6%
Second compound 9.49 µM, first compound 0.0003 µM
  viability, T/C: 78.9%
Second compound 9.49 µM, first compound 0.000949 µM
  viability, T/C: 73.2%
Second compound 9.49 µM, first compound 0.003 µM
  viability, T/C: 62.7%
Second compound 9.49 µM, first compound 0.00949 µM
  viability, T/C: 42.5%
Second compound 9.49 µM, first compound 0.03 µM
  viability, T/C: 18.2%
Second compound 30 µM, first compound 94.9 pM
  viability, T/C: 109%
Second compound 30 µM, first compound 0.0003 µM
  viability, T/C: 77.6%
Second compound 30 µM, first compound 0.000949 µM
  viability, T/C: 95.4%
Second compound 30 µM, first compound 0.003 µM
  viability, T/C: 68.5%
Second compound 30 µM, first compound 0.00949 µM
  viability, T/C: 48.3%
Second compound 30 µM, first compound 0.03 µM
  viability, T/C: 21.8%

## CCCS(=O)(=O)Nc1ccc(F)c(C(=O)c2c[nH]c3ncc(-c4ccc(Cl)cc4)cc23)c1F + CC(C)NCC(C(=O)N1CCN(c2ncnc3c2C(C)CC3O)CC1)c1ccc(Cl)cc1
[1]
  pIC50: < 4.00
[2]
  pIC50: < 4.00
[3]
  pIC50: < 4.00
[4]
  pIC50: < 4.00
[5]
  pIC50: 4.52
Second compound 0.3 µM, first compound 0.316 µM
  viability, T/C: 85.8%
Second compound 0.3 µM, first compound 1 µM
  viability, T/C: 109%
Second compound 0.3 µM, first compound 3.16 µM
  viability, T/C: 95.8%
Second compound 0.3 µM, first compound 10 µM
  viability, T/C: 109%
Second compound 0.3 µM, first compound 31.6 µM
  viability, T/C: 90.6%
Second compound 0.3 µM, first compound 100 µM
  viability, T/C: 103%
Second compound 0.949 µM, first compound 0.316 µM
  viability, T/C: 74.8%
Second compound 0.949 µM, first compound 1 µM
  viability, T/C: 99.7%
Second compound 0.949 µM, first compound 3.16 µM
  viability, T/C: 118%
Second compound 0.949 µM, first compound 10 µM
  viability, T/C: 83.1%
Second compound 0.949 µM, first compound 31.6 µM
  viability, T/C: 51%
Second compound 0.949 µM, first compound 100 µM
  viability, T/C: 99.9%
Second compound 3 µM, first compound 0.316 µM
  viability, T/C: 106%
Second compound 3 µM, first compound 1 µM
  viability, T/C: 102%
Second compound 3 µM, first compound 3.16 µM
  viability, T/C: 114%
Second compound 3 µM, first compound 10 µM
  viability, T/C: 82.8%
Second compound 3 µM, first compound 31.6 µM
  viability, T/C: 99.8%
Second compound 3 µM, first compound 100 µM
  viability, T/C: 113%
Second compound 9.49 µM, first compound 0.316 µM
  viability, T/C: 99.8%
Second compound 9.49 µM, first compound 1 µM
  viability, T/C: 103%
Second compound 9.49 µM, first compound 3.16 µM
  viability, T/C: 84.8%
Second compound 9.49 µM, first compound 10 µM
  viability, T/C: 88.1%
Second compound 9.49 µM, first compound 31.6 µM
  viability, T/C: 77.9%
Second compound 9.49 µM, first compound 100 µM
  viability, T/C: 96%
Second compound 30 µM, first compound 0.316 µM
  viability, T/C: 76.3%
Second compound 30 µM, first compound 1 µM
  viability, T/C: 101%
Second compound 30 µM, first compound 3.16 µM
  viability, T/C: 94.9%
Second compound 30 µM, first compound 10 µM
  viability, T/C: 61%
Second compound 30 µM, first compound 31.6 µM
  viability, T/C: 23.6%
Second compound 30 µM, first compound 100 µM
  viability, T/C: 75.5%

## CC(C)(C)c1nc(-c2cccc(NS(=O)(=O)c3c(F)cccc3F)c2F)c(-c2ccnc(N)n2)s1
Compound 0.0316 µM
  viability, T/C: 116% and 110%
Compound 0.1 µM
  viability, T/C: 134% and 144%
Compound 0.316 µM
  viability, T/C: 131% and 137%
Compound 1 µM
  viability, T/C: 132% and 150%
Compound 3.16 µM
  viability, T/C: 99% and 94.1%
Compound 10 µM
  viability, T/C: 53.2% and 71.4%
Curve of compound
  pIC50: < 5.00
